From patent publication US5328902A, “7-(substituted)-9-[(substituted glycyl)amido]-6-demethyl-6-deoxytetracyclines” (American Cyanamid Co., priority 1992, dated 1994)
≈ marks a conversion by molar mass, not a printed value.

What was measured:
Type in all cases: cell-based
E. coli J3272 Tet D = assay: microbe, parasite or virus in culture; conditions: E. coli J3272 Tet D
E. coli PRP1 Tet A = assay: microbe, parasite or virus in culture; conditions: E. coli PRP1 Tet A
[1] = system: X. maltophilia NEMC 87210; assay: MIC, agar dilution
[2] = system: S. hemolyticus AVHAH 88-3; assay: MIC, agar dilution; conditions: S. hemolyticus AVHAH 88-3
Enterococcus 12201 = assay: MIC, agar dilution; conditions: Enterococcus 12201
[3] = system: E. coli MC 4100 TNIOC Tet B; assay: microbe, parasite or virus in culture; conditions: E. coli MC 4100 TNIOC Tet B
[4] = system: Ps. acruginosa ATCC 27853; assay: MIC, agar dilution; conditions: Ps. acruginosa ATCC 27853
E. coli UBMS 88-1 Tet B = assay: microbe, parasite or virus in culture; conditions: E. coli UBMS 88-1 Tet B; 18 hours at 35° C.
[5] = system: S. aureus UBMS 88-5 Tet M; assay: microbe, parasite or virus in culture; conditions: S. aureus UBMS 88-5 Tet M
E. coli J2175 = assay: MIC, agar dilution; conditions: E. coli J2175
E. coli BAJ9003 IMP MUT = assay: microbe, parasite or virus in culture; conditions: E. coli BAJ9003 IMP MUT
S. aureus NEMC 8769 = assay: MIC, agar dilution; conditions: S. aureus NEMC 8769
S. aureus IVES 2943 = assay: MIC, agar dilution; conditions: S. aureus IVES 2943
E. coli UBMS 90-4 Tet M = assay: microbe, parasite or virus in culture; conditions: E. coli UBMS 90-4 Tet M
S. aureus UBMS 88-4 = assay: MIC, agar dilution; conditions: S. aureus UBMS 88-4
[6] = system: S. aureus UBMS 90-2 Tet M; assay: microbe, parasite or virus in culture; conditions: S. aureus UBMS 90-2 Tet M
S. aureus SMITH (MP) = assay: MIC, agar dilution; conditions: S. aureus SMITH (MP)
[7] = system: E. coli MC 4100 Tet sens.; assay: MIC, agar dilution
S. aureus ROSE (MP) = assay: MIC, agar dilution; conditions: S. aureus ROSE (MP)
E. coli UBMS 90-5 = assay: MIC, agar dilution
E. faecalis ATCC 29212 = assay: MIC, agar dilution; conditions: E. faecalis ATCC 29212
E. coli UBMS 89-1 Tet M = assay: microbe, parasite or virus in culture; conditions: E. coli UBMS 89-1 Tet M
S. aureus ATCC 29213 = assay: MIC, agar dilution; conditions: S. aureus ATCC 29213
E. coli J3272 Tet C = assay: microbe, parasite or virus in culture; conditions: E. coli J3272 Tet C
[8] = system: S. aureus UBMS 88-7 Tet K; assay: microbe, parasite or virus in culture; conditions: S. aureus UBMS 88-7 Tet K
S. mariescens FPOR 8733 = assay: MIC, agar dilution
S. aureus UBMS 90-3 = assay: MIC, agar dilution; conditions: S. aureus UBMS 90-3
E. coli #311 (MP) = assay: MIC, agar dilution; conditions: E. coli #311 (MP)
E. coli ATCC 25922 = assay: MIC, agar dilution; conditions: E. coli ATCC 25922
[9] = system: S. aureus UBMS 90-1 Tet M; assay: microbe, parasite or virus in culture; conditions: S. aureus UBMS 90-1 Tet M
[10] = system: E. coli UBMS 89-2 Tet sens.; assay: MIC, agar dilution; conditions: E. coli UBMS 89-2 Tet sens.
S. aureus IVES 1 983 = assay: MIC, agar dilution; conditions: S. aureus IVES 1 983

SMILES | MIC (E. coli J3272 Tet D) [mg/L] | MIC (E. coli PRP1 Tet A) [mg/L] | MIC [1] [mg/L] | MIC [2] [mg/L] | MIC (Enterococcus 12201) [mg/L] | MIC [3] [mg/L] | MIC [4] [mg/L] | MIC (E. coli UBMS 88-1 Tet B) [mg/L] | MIC [5] [mg/L] | MIC (E. coli J2175) [mg/L] | MIC (E. coli BAJ9003 IMP MUT) [mg/L] | MIC (S. aureus NEMC 8769) [mg/L] | MIC (S. aureus IVES 2943) [mg/L] | MIC (E. coli UBMS 90-4 Tet M) [mg/L] | MIC (S. aureus UBMS 88-4) [mg/L] | MIC [6] [mg/L] | MIC (S. aureus SMITH (MP)) [mg/L] | MIC [7] [mg/L] | MIC (S. aureus ROSE (MP)) [mg/L] | MIC (E. coli UBMS 90-5) [mg/L] | also measured
CN(C)c1cc(NC(=O)CNCCO)c(O)c2c1CC1CC3C(N(C)C)C(O)=C(C(N)=O)C(=O)C3(O)C(O)=C1C2=O.Cl (stereo not drawn) [P, [4S-(4alpha,12aalpha)]-4,7-Bis(dimethylamino)-1.4,4a,5,5a,6,11,12a-octahydro-3,10, 12,12a-tetrahydroxy-9-[[[(2-hydroxyethyl)amino]acetyl]amino]-1,11-dioxo-2-naphthacenecarboxamide monohydrochloride] | 16 | > 32 | > 32 | 32 | 8 | > 32 | > 32 | > 32 | 32 | 32 | 2 | 4 | > 32 | 32 | 8 | 16 | 4 | 4 | > 32 | 32 | MIC (E. faecalis ATCC 29212): 4 mg/L; MIC (E. coli UBMS 89-1 Tet M): > 32 mg/L; MIC (S. aureus ATCC 29213): 8 mg/L; MIC (E. coli J3272 Tet C): > 32 mg/L; MIC [8]: 32 mg/L; MIC (S. mariescens FPOR 8733): > 32 mg/L; MIC (S. aureus UBMS 90-3): 8 mg/L; MIC (E. coli #311 (MP)): 16 mg/L; MIC (E. coli ATCC 25922): 16 mg/L; MIC [9]: 32 mg/L; MIC [10]: > 32 mg/L; MIC (S. aureus IVES 1 983): > 32 mg/L
CN(CCO)CC(=O)Nc1cc(N(C)C)c2c(c1O)C(=O)C1=C(O)[C@]3(O)C(=O)C(C(N)=O)=C(O)[C@@H](N(C)C)C3CC1C2 (stereo partly shown) [Q] | 32 (≈ 54.5 µM) | > 32 | 8 (≈ 13.6 µM) | 16 (≈ 27.2 µM) | 4 (≈ 6.81 µM) | > 32 | > 32 | 32 (≈ 54.5 µM) | 16 (≈ 27.2 µM) | 32 (≈ 54.5 µM) | 2 (≈ 3.4 µM) | 8 (≈ 13.6 µM) | > 32 | 16 (≈ 27.2 µM) | 8 (≈ 13.6 µM) | 16 (≈ 27.2 µM) | 8 (≈ 13.6 µM) | 4 (≈ 6.81 µM) | > 32 | 32 (≈ 54.5 µM) | MIC (E. faecalis ATCC 29212): 4 mg/L (≈ 6.81 µM); MIC (E. coli UBMS 89-1 Tet M): 32 mg/L (≈ 54.5 µM); MIC (S. aureus ATCC 29213): 16 mg/L (≈ 27.2 µM); MIC (E. coli J3272 Tet C): > 32 mg/L; MIC [8]: 32 mg/L (≈ 54.5 µM); MIC (S. mariescens FPOR 8733): 16 mg/L (≈ 27.2 µM); MIC (S. aureus UBMS 90-3): 8 mg/L (≈ 13.6 µM); MIC (E. coli #311 (MP)): 32 mg/L (≈ 54.5 µM); MIC (E. coli ATCC 25922): 32 mg/L (≈ 54.5 µM); MIC [9]: 32 mg/L (≈ 54.5 µM); MIC [10]: 32 mg/L (≈ 54.5 µM); MIC (S. aureus IVES 1 983): > 32 mg/L
